Measurements: patent US9351931B2, “Pharmaceutical preparation for tumor chemotherapy and method for producing the same” (HUBEI SOUNDNY BIOTECHNOLOGY CO., LTD., priority 2012, dated 2016)

Key:
[1] = tested on: A2780 human ovarian carcinoma cells; assay: Co-culture killing of human ovarian carcinoma cells (Example 4); type: cell-based; conditions: pure drug, 100 μg cisplatin to 5×10^6 A2780 cells, 72 hours; FIG. 4E
Experimental: (§1) the third group of H22 mouse hepatoma cells and the third group of the A2780 human ovarian carcinoma cells are left without any treatment.
(§2) 4) half of the micro-particles taken from the above test group, and half of the cell vesicles taken from the control group are respectively co-cultured with 5×10^4 tumor cells taken from the third group of tumor cells of different types for 72 hours within a 24-pore plate, the death of the tumor cells is observed, wherein the cell vesicles that are co-cultured with the tumor cells are the cell vesicles derived from the same type of tumor cells, and the micro-particles that are co-cultured with the tumor cells are the micro-particles formed after the cell vesicles derived from the same type of tumor cells have the chemotherapeutic drug wrapped therein;

H22 mouse hepatoma cells = assay: Co-culture killing of mouse hepatoma cells (Example 4); type: cell-based; conditions: pure drug, 10 μg methotrexate to 5×10^6 H22 cells, 72 hours; FIG. 4B
Experimental: as §1, §2

Structure (SMILES)	death of the tumor cells [1]	death of the tumor cells (H22 mouse hepatoma cells)
N.N.[Cl][Pt][Cl] [cisplatin]	there are still certain amount of tumor cells survived	–
CN(Cc1cnc2nc(N)nc(N)c2n1)c1ccc(C(=O)N[C@@H](CCC(=O)O)C(=O)O)cc1 [methotrexate]	–	there are still certain amount of tumor cells survived
